# Test results: PubChem BioAssay (NCI)
# Where “and” joins values, the source holds several entries; their conditions need not be identical. Equal entries are not always repeated.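 1) Cells in 96-well plates. 2) Compound, 48 h, 5 concentrations. 3) Linear interpolation between surrounding doses. 4) Unreached endpoint = highest concentration. GI50 = concentration required for 50% inhibition of growth. At the TGI there is no net growth.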
# Experiments:
# Experiment in all cases: NCI anticancer screen, dose series, 48 h
# [1] = tested on: SK-MEL-2 melanoma
# [2] = tested on: LOX IMVI melanoma
# [3] = tested on: OVCAR-8 ovarian
# [4] = tested on: BT-549 breast
# [5] = tested on: SF-268 CNS
# [6] = tested on: SK-MEL-28 melanoma
# [7] = tested on: T-47D breast
# [8] = tested on: MDA-MB-435
# [9] = tested on: NCI-H522 lung
# [10] = tested on: SNB-19 CNS
# [11] = tested on: MDA-MB-231 breast
# [12] = tested on: TK-10 renal
# [13] = tested on: UACC-257 melanoma
# [14] = tested on: 786-0 renal
# [15] = tested on: NCI-H460 lung
# [16] = tested on: OVCAR-3 ovarian
# [17] = tested on: COLO 205 colon
# [18] = tested on: HCC-2998 colon
# [19] = tested on: RPMI-8226 leukemia
# [20] = tested on: HCT-15 colon
# [21] = tested on: A498 renal
# [22] = tested on: SR leukemia
# [23] = tested on: HOP-62 NSCLC
# [24] = tested on: HOP-92 NSCLC
# [25] = tested on: UO-31 renal
# [26] = tested on: OVCAR-4 ovarian
# [27] = tested on: EKVX NSCLC
# [28] = tested on: HT29 colon
# [29] = tested on: MCF7 breast
# [30] = tested on: M14 melanoma
# [31] = tested on: A549 NSCLC
# [32] = tested on: K-562 leukemia
# [33] = tested on: MALME-3M melanoma
# [34] = tested on: HCT-116 colon
# [35] = tested on: NCI/ADR-RES ovarian
# [36] = tested on: OVCAR-5 ovarian
# [37] = tested on: NCI-H23 lung
# [38] = tested on: HL-60(TB) leukemia
# [39] = tested on: SK-MEL-5 melanoma
# [40] = tested on: SW-620 colon
# [41] = tested on: SF-295 CNS
# [42] = tested on: MOLT-4 leukemia
# [43] = tested on: SF-539 CNS
# [44] = tested on: HS 578T breast
# [45] = tested on: DU-145 prostate
# [46] = tested on: SN12C renal
# [47] = tested on: SNB-75 CNS
# [48] = tested on: RXF 393 renal
# [49] = tested on: UACC-62 melanoma
# [50] = tested on: CCRF-CEM leukemia
# [51] = tested on: KM12 colon
# [52] = tested on: U251 CNS
# [53] = tested on: NCI-H226 lung
# [54] = tested on: PC-3 prostate
# [55] = tested on: ACHN renal
# [56] = tested on: CAKI-1 renal
# [57] = tested on: IGROV1 ovarian
# [58] = tested on: SK-OV-3 ovarian
structure (smiles),measurement,setting,value
N#Cc1c(NCc2ccccc2)nc(NCc2ccccc2)c(C#N)c1-c1ccc(Cl)cc1,TGI,[1],> 50 µM and 30.4 µM
same,GI50,[2],> 50 µM and 29.7 µM
same,TGI,[2],> 100 µM
same,GI50,[3],> 50 µM and 45.7 µM
same,TGI,[3],> 100 µM
same,GI50,[4],63.6 µM
same,TGI,[4],> 100 µM
same,GI50,[5],> 50 µM and 25.4 µM
same,TGI,[5],> 50 µM and 80 µM
same,GI50,[6],> 50 µM and 59 µM
same,TGI,[6],> 100 µM
same,GI50,[7],> 100 µM
same,TGI,[7],> 100 µM
same,GI50,[8],> 50 µM and 43.6 µM
same,TGI,[8],> 100 µM
same,GI50,[9],31.7 µM
same,TGI,[9],> 100 µM
same,GI50,[10],> 50 µM and 40.9 µM
same,TGI,[10],> 100 µM
same,GI50,[11],> 50 µM and 31.9 µM
same,TGI,[11],> 100 µM
same,GI50,[12],> 50 µM and 62.7 µM
same,TGI,[12],> 100 µM
same,GI50,[13],> 100 µM
same,TGI,[13],> 100 µM
same,GI50,[14],> 50 µM and 41.5 µM
same,TGI,[14],> 100 µM
same,GI50,[15],> 50 µM and 34.4 µM
same,TGI,[15],> 100 µM
same,GI50,[16],> 50 µM and 34.4 µM
same,TGI,[16],> 100 µM
same,GI50,[17],> 50 µM and 76 µM
same,TGI,[17],> 100 µM
same,GI50,[18],> 100 µM
same,TGI,[18],> 100 µM
same,GI50,[19],> 50 µM and 50.3 µM
same,TGI,[19],> 100 µM
same,GI50,[20],> 100 µM
same,TGI,[20],> 100 µM
same,GI50,[21],> 50 µM and 33 µM
same,TGI,[21],> 50 µM and 89.7 µM
same,GI50,[22],> 50 µM and 19.7 µM
same,TGI,[22],> 50 µM and 58.5 µM
same,GI50,[23],> 50 µM and 22.3 µM
same,TGI,[23],> 50 µM and 62.7 µM
same,GI50,[24],> 50 µM
same,TGI,[24],> 50 µM
same,GI50,[25],> 100 µM
same,TGI,[25],> 100 µM
same,GI50,[26],> 50 µM and 23.9 µM
same,TGI,[26],> 100 µM
same,GI50,[27],50.8 µM
same,TGI,[27],> 100 µM
same,GI50,[28],> 100 µM
same,TGI,[28],> 100 µM
same,GI50,[29],> 50 µM and 66.8 µM
same,TGI,[29],> 100 µM
same,GI50,[30],> 50 µM and 53.5 µM
same,TGI,[30],> 100 µM
same,GI50,[31],> 50 µM and 51.5 µM
same,TGI,[31],> 100 µM
same,GI50,[32],> 50 µM
same,TGI,[32],> 50 µM
same,GI50,[33],> 100 µM
same,TGI,[33],> 100 µM
same,GI50,[34],> 50 µM and 24.6 µM
same,TGI,[34],> 100 µM
same,GI50,[35],> 50 µM and 96.6 µM
same,TGI,[35],> 100 µM
same,GI50,[36],> 50 µM and 77.3 µM
same,TGI,[36],> 100 µM
same,GI50,[37],> 50 µM and 67.1 µM
same,TGI,[37],> 100 µM
same,GI50,[38],> 50 µM
same,TGI,[38],> 50 µM
same,GI50,[39],> 100 µM
same,TGI,[39],> 100 µM
same,GI50,[40],> 50 µM and 44.1 µM
same,TGI,[40],> 100 µM
same,GI50,[41],> 50 µM and 36 µM
same,TGI,[41],> 100 µM
same,GI50,[42],> 50 µM and 76.9 µM
same,TGI,[42],> 100 µM
same,GI50,[43],> 50 µM and 29 µM
same,TGI,[43],> 100 µM
same,GI50,[44],> 50 µM and 37.8 µM
same,TGI,[44],> 50 µM and 86.6 µM
same,GI50,[45],> 50 µM and 52.8 µM
same,TGI,[45],> 100 µM
same,GI50,[46],> 50 µM and 36.2 µM
same,TGI,[46],> 100 µM
same,GI50,[47],> 50 µM and 34.7 µM
same,TGI,[47],> 100 µM
same,GI50,[48],65.5 µM
same,TGI,[48],> 100 µM
same,GI50,[49],> 50 µM and 37.8 µM
same,TGI,[49],> 100 µM
same,GI50,[50],> 50 µM and 22.5 µM
same,TGI,[50],> 50 µM and 49.5 µM
same,GI50,[51],> 50 µM and 85.8 µM
same,TGI,[51],> 100 µM
same,GI50,[52],> 50 µM and 19.2 µM
same,TGI,[52],> 50 µM and 40.8 µM
same,GI50,[53],> 50 µM and 25.6 µM
same,TGI,[53],> 50 µM and 81.4 µM
same,GI50,[54],> 50 µM and 61.2 µM
same,TGI,[54],> 100 µM
same,GI50,[55],> 50 µM and 43.4 µM
same,TGI,[55],> 100 µM
same,GI50,[56],> 100 µM
same,TGI,[56],> 100 µM
same,GI50,[57],> 50 µM and 37.1 µM
same,TGI,[57],> 100 µM
same,GI50,[58],> 100 µM
same,TGI,[58],> 100 µM
CN1CCN(C(=O)[C@@]2(C)CC[C@]3(C)CC[C@]4(C)C(=CC[C@@H]5[C@@]6(C)CCC(=O)NC(C)(C)[C@@H]6CC[C@]54C)[C@@H]3C2)CC1,GI50,[1],1.94 µM
same,TGI,[1],3.84 µM
same,GI50,[2],1.46 µM
same,TGI,[2],2.84 µM
same,GI50,[3],3.94 µM
same,TGI,[3],14.8 µM
same,GI50,[4],1.58 µM
same,TGI,[4],3.28 µM
same,GI50,[5],3.04 µM
same,TGI,[5],14.4 µM
same,GI50,[6],1.56 µM
same,TGI,[6],2.97 µM
same,GI50,[7],1.62 µM
same,TGI,[7],4.21 µM
same,GI50,[8],1.62 µM
same,TGI,[8],3.3 µM
same,GI50,[9],1.78 µM
same,TGI,[9],3.75 µM
same,GI50,[10],1.81 µM
same,TGI,[10],3.56 µM
same,GI50,[11],1.7 µM
same,TGI,[11],3.47 µM
same,GI50,[12],1.8 µM
same,TGI,[12],3.42 µM
same,GI50,[13],2.1 µM
same,TGI,[13],4.72 µM
same,GI50,[14],1.58 µM
same,TGI,[14],2.98 µM
same,GI50,[15],1.69 µM
same,TGI,[15],3.3 µM
same,GI50,[16],2.01 µM
same,TGI,[16],4.7 µM
same,GI50,[17],1.54 µM
same,TGI,[17],3.18 µM
same,GI50,[18],1.51 µM
same,TGI,[18],3.04 µM
same,GI50,[19],1.43 µM
same,TGI,[19],3.74 µM
same,GI50,[20],1.2 µM
same,TGI,[20],2.96 µM
same,GI50,[21],2.68 µM
same,TGI,[21],12.1 µM
same,GI50,[22],0.391 µM
same,TGI,[22],4.47 µM
same,GI50,[23],1.56 µM
same,TGI,[23],3.13 µM
same,GI50,[24],1.05 µM
same,TGI,[24],3.89 µM
same,GI50,[25],1.19 µM
same,TGI,[25],2.51 µM
same,GI50,[26],2.94 µM
same,TGI,[26],13 µM
same,GI50,[27],2.74 µM
same,TGI,[27],12.8 µM
same,GI50,[28],1.5 µM
same,TGI,[28],3.35 µM
same,GI50,[29],1.83 µM
same,TGI,[29],4.17 µM
same,GI50,[30],1.69 µM
same,TGI,[30],3.38 µM
same,GI50,[31],2.02 µM
same,TGI,[31],5.28 µM
same,GI50,[32],1.07 µM
same,TGI,[32],3.02 µM
same,GI50,[33],1.45 µM
same,TGI,[33],2.82 µM
same,GI50,[34],1.13 µM
same,TGI,[34],2.45 µM
same,GI50,[35],3 µM
same,TGI,[35],11.9 µM
same,GI50,[36],1.65 µM
same,TGI,[36],3.17 µM
same,GI50,[37],2.48 µM
same,TGI,[37],8.91 µM
same,GI50,[38],1.87 µM
same,TGI,[38],3.87 µM
same,GI50,[39],1.64 µM
same,TGI,[39],3.06 µM
same,GI50,[40],1.87 µM
same,TGI,[40],3.93 µM
same,GI50,[41],1.53 µM
same,TGI,[41],3.07 µM
same,GI50,[42],1.52 µM
same,TGI,[42],3.66 µM
same,GI50,[43],1.56 µM
same,TGI,[43],2.9 µM
same,GI50,[44],2.06 µM
same,TGI,[44],6.78 µM
same,GI50,[45],3.44 µM
same,TGI,[45],12.1 µM
same,GI50,[46],1.46 µM
same,TGI,[46],3.3 µM
same,GI50,[47],1.57 µM
same,TGI,[47],3.34 µM
same,GI50,[48],1.06 µM
same,TGI,[48],2.52 µM
same,GI50,[49],1.55 µM
same,TGI,[49],3.03 µM
same,GI50,[50],1.58 µM
same,TGI,[50],4.43 µM
same,GI50,[51],1.56 µM
same,TGI,[51],3.13 µM
same,GI50,[52],1.38 µM
same,TGI,[52],2.82 µM
same,GI50,[53],4.14 µM
same,TGI,[53],21.4 µM
same,GI50,[54],0.813 µM
same,TGI,[54],2.42 µM
same,GI50,[55],1.99 µM
same,TGI,[55],4.11 µM
same,GI50,[56],2.36 µM
same,TGI,[56],6.48 µM
same,GI50,[57],1.77 µM
same,TGI,[57],3.77 µM
same,GI50,[58],1.84 µM
same,TGI,[58],3.87 µM
